Assay results taken from patent publication US7351397B2, “Stabilization of radiopharmaceutical compositions using hydrophilic 6-hydroxy chromans” (CIS bio international, priority 2000, dated 2008).

Key:
Assay type in all cases: physicochemical
[1] = Radiolabelling yield (RCP) by reversed phase HPLC of 99mTc-labelled glycoprotein IIb/IIIa receptor-binding peptide with and without Trolox
Procedure: Lyophilized kit vials were prepared containing the peptide (50 μg), sodium glucoheptonate dihydrate (10 mg), stannous chloride dihydrate (50 μg), and edetate disodium dihydrate (100 μg). The formulation was adjusted to pH 7.4 prior to lyophilization.
The lyophilized kits were radiolabelled with ^99mTc in the presence and absence of Trolox®. To the Trolox® preparation was added 2 mg Trolox® in 100 μL ethanol and 100 μL saline. The ethanol was necessary to aid in the dissolution of the Trolox®. To the control preparation was added 100 μL ethanol and 100 μL saline to account for the additional saline or ethanol added with the Trolox.

[2] = Radiolabelling yield (RCP) by reversed phase HPLC of 99mTc-labelled monoamine, diamide, single thiol peptide chelator with and without Trolox
Procedure: Lyophilized kit “placebo” vials were prepared containing sodium glucoheptonate dihydrate, edetate disodium dihydrate, and stannous chloride dihydrate at the concentrations set forth in Table 1 (control formulation).
The peptide chelator was radiolabelled with ^99mTc in the presence and absence of Trolox®. The peptide chelator was dissolved in water at a concentration of 1 mg/mL, and 50 μg (50 μL) of the peptide was added to each of three placebo vials. Ethanol and Trolox® were added to the control and Trolox®, preparations as described in Example 11. In addition, 100 μL phosphate buffered saline (PBS) was added to each preparation.

[3] = Radiolabelling yield (RCP) by reversed phase HPLC of 99mTc-labelled bisamide bisthiol non-peptide chelator with and without Trolox
Source text: The non-peptide chelator was radiolabelled with ^99mTc in the presence and absence of Trolox® using the placebo vial heated preparation procedure as described in Example 4.

[4] = Radiolabelling yield (RCP) by reversed phase HPLC of 99mTc depreotide from lyophilized kits after accelerated temperature (40° C.) storage; settings: lyophilized kits thermally stressed by accelerated temperature storage
Procedure: Lyophilized kits were prepared containing depreotide, Trolox®, and other components as described in Table 5. […] The kits were stored for one week at 40° C. Some kits were also stored at −10° C. as controls.

[5] = Radiolabelling yield (RCP) by reversed phase HPLC of 99mTc-labelled depreotide from lyophilized kits with Trolox; settings: prepared from formulated kits
Procedure: Lyophilized kit vials were prepared containing depreotide, Trolox®, and other components as described in Table 3.
Some of the formulations were also radiolabelled in a heated preparation (heat in a boiling water bath for 10 minutes).

[6] = Radiolabelling yield (RCP) by reversed phase HPLC of 99mTc-labelled depreotide from lyophilized kits with gentisic acid; settings: when included in formulated kits
Procedure: Lyophilized kit vials were prepared containing depreotide, GA, and other components as described in Table 1. Formulations were adjusted to pH 7.4 or 8.5 (as noted) prior to lyophilization.

stabilization of 99mTc-depreotide [4]	effect on radiolabelling yield and stability of 99mTc-depreotide [6]	Structure (SMILES)	effect on radiolabelling yield and stability of 99mTc-peptide [1]	effect on radiolabelling yield and stability of 99mTc-labelled peptide chelator [2]	effect on radiolabelling yield and stability of 99mTc-labelled non-peptide chelator [3]	effect on radiolabelling yield and stability of 99mTc depreotide [5]
stabilizes		Cc1c(C)c2c(c(C)c1O)CCC(C)(C(=O)O)O2 (stereo not drawn) [Trolox®, 6-hydroxy-2,5,7,8-tetramethylchroman-2-carboxylic acid]	increases the radiolabelling yield and the stability	increases the radiolabelling yield and the stability	increases the radiolabelling yield and the stability	increases the radiolabelling yield and the stability
	decreases the radiochemical purity	O=C(O)c1cc(O)ccc1O [gentisic acid, Gentisic acid]				
